pIC50, pKd: −log10 of the molar value. A value given as a limit tells only on which side of the number the result lay.

The target of the first assay is T1, Mitogen-activated protein kinase 1 (Homo sapiens, UniProt P28482). Nature of the assay: Inhibition of human recombinant ERK2 expressed in Escherichia coli using Omnia peptide S/T17 as substrate measured every 50 seconds for 30 mins.
T1 sequence (P28482 whole entry): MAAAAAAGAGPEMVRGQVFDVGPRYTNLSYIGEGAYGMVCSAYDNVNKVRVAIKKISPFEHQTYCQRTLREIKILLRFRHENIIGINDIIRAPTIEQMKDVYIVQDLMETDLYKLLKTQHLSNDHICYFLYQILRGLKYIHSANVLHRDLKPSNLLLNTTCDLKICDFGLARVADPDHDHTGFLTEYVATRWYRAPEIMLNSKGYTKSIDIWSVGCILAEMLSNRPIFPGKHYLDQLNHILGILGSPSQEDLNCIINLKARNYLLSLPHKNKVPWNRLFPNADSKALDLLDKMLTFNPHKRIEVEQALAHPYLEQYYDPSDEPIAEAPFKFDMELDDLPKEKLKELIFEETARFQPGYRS
Regarding `Cn1cc(-c2c[nH]c3ncc(-c4ccncc4)nc23)cn1`, the negative-log IC50 (pIC50) was 7.14.

A further assay deals with T1, Mitogen-activated protein kinase 1. Nature of the assay: Inhibition of ERK2 (unknown origin) using 5FAM-IPTSPITTTYFFFKKK as substrate after 1 hr by LC3K assay.
For the compound `c1cncc(-c2cnc3[nH]ccc3n2)c1`, the pIC50 is 4.15.

Consider `Cc1n[nH]c(C)c1-c1cnc2[nH]ccc2n1`, for which the pIC50 was 4.85.

Regarding `c1cc(-c2cnc3[nH]cc(-c4cnn(CCN5CCOCC5)c4)c3n2)ccn1`, the pIC50 was 6.38.

The compound `Cc1ccc(-c2c[nH]c3ncc(-c4ccncc4)nc23)cn1` gave a negative logarithm of the IC50 (pIC50) of 6.20.

`c1cc2nc(-c3ccc4cn[nH]c4c3)cnc2[nH]1` had a negative-log IC50 (pIC50) of 4.50.

`CCn1cc(-c2c[nH]c3ncc(-c4ccncc4)nc23)cn1` had a negative-log IC50 (pIC50) of 6.83.

On to `Cn1cc(-c2cnc3[nH]ccc3n2)cn1`, for which the pIC50 is 4.65.

In the case of `Nc1ccc(-c2c[nH]c3ncc(-c4ccncc4)nc23)cn1`, the pIC50 was 6.33.

As for `c1cc(-c2cnc3[nH]cc(-c4ccn[nH]4)c3n2)ccn1`, the pIC50 was 6.03.

As for `c1cncc(-c2cnc3[nH]cc(-c4cccnc4)c3n2)c1`, the pIC50 is 6.39.

Regarding `c1cc2nc(-c3cn[nH]c3)cnc2[nH]1`, the pIC50 was 5.23.

Compound `c1ncc(-c2c[nH]c3ncc(-c4cn[nH]c4)nc23)cn1` had a pIC50 of 5.98.

`Fc1ccc(-c2cnc3[nH]ccc3n2)cc1` gave a pIC50 of 4.53.

For the compound `c1cc(-c2cnc3[nH]cc(-c4cncnc4)c3n2)ccn1`, the pIC50 was 5.66.

`Cc1n[nH]cc1-c1cnc2[nH]ccc2n1` gave a pIC50 of 4.65.

Consider `c1cc(-c2cnc3[nH]ccc3n2)ccn1`, for which the negative logarithm of the IC50 (pIC50) is 4.93.

For `Oc1ccc(-c2cnc3[nH]ccc3n2)cc1`, the pIC50 is 4.91.

In turn, `c1cncc(-c2c[nH]c3ncc(-c4cn[nH]c4)nc23)c1` had a pIC50 of 6.55.

`Fc1cc(-c2cnc3[nH]ccc3n2)ccn1`: the pIC50 was 4.67.

As to `NC(=O)c1ccc(-c2cnc3[nH]ccc3n2)cc1`, the pIC50 was 4.36.

Regarding `OCCCn1cc(-c2c[nH]c3ncc(-c4ccncc4)nc23)cn1`, the pIC50 was 6.21.

In turn, `CC(C)Cn1cc(-c2c[nH]c3ncc(-c4ccncc4)nc23)cn1` gave a pIC50 of 7.04.

`c1ccc(CCn2cc(-c3c[nH]c4ncc(-c5ccncc5)nc34)cn2)cc1` gave a pIC50 of 5.70.

On to `CCCn1cc(-c2c[nH]c3ncc(-c4ccncc4)nc23)cn1`, for which the pIC50 was 7.15.

For the compound `c1ccc(Cn2cc(-c3c[nH]c4ncc(-c5ccncc5)nc34)cn2)cc1`, the pIC50 is 7.43.

Compound `Oc1cccc(-c2cnc3[nH]ccc3n2)c1` gave a pIC50 below 3.70.

`COc1ccc(-c2cnc3[nH]ccc3n2)cc1` showed a pIC50 of 4.05.

In turn, `Clc1ccc(-c2c[nH]c3ncc(-c4ccncc4)nc23)cn1` gave a pIC50 of 6.74.

Turning to `COc1ccc(-c2c[nH]c3ncc(-c4ccncc4)nc23)cn1`, the pIC50 was 6.60.

The compound `NC(=O)c1cccc(-c2cnc3[nH]ccc3n2)c1` had a pIC50 below 3.70.

Compound `Brc1cnc2[nH]ccc2n1` gave a pIC50 below 3.70.

The compound `c1ccc(-c2cnc3[nH]ccc3n2)cc1` had a pIC50 of 4.30.

Take `c1cc(-c2cnc3[nH]cc(-c4cn[nH]c4)c3n2)ccn1`: the pIC50 was 6.45.

For another assay the target is unchanged. Kind of assay: Binding affinity to ERK2 (unknown origin) by surface plasmon resonance assay.
For `Brc1c[nH]c2nccnc12`, the pKd is 4.01.

For the compound `c1cnc2[nH]ccc2n1`, the pKd is 3.46.

In the case of `Brc1cnc2[nH]cc(I)c2n1`, the pKd was 3.90.

`c1ccc(CNc2ncnc3nc[nH]c23)cc1` [6-BENZYLAMINOPURINE] showed a pKd of 3.61. Against the preceding compound, the pKd is 0.29 log units lower.

For `Brc1cnc2[nH]ccc2n1`, the pKd was 3.50.

Source of the values: ChEMBL document CHEMBL3627630, “Fragment-based discovery of potent ERK2 pyrrolopyrazine inhibitors” (Bioorg Med Chem Lett, 2015).
